Conditions: instrument: DT, stepped-field

Structure (SMILES) | collision cross section (N2) ([M+2Na-H]+) [Å²] | collision cross section (N2) ([M+H]+) [Å²] | collision cross section (N2) ([M+Na]+) [Å²] | further results
CCCCCCCCCCCCC=CC[C@@H](O)[C@H](CO[C@@H]1O[C@H](CO)[C@@H](O)C(O)C1O)NC(=O)CCCCCCCCCCCCCCCCCCCCCCCCCCCCCC (some centres undefined) [GlcCer(49:01)] |  |  |  | collision cross section (N2) ([M+Na-2H2O]+): 317.53 Å²
CCCCCCCCCCCCC=CC[C@@H](O)[C@H](CO[C@@H]1O[C@H](CO)[C@@H](O)C(O)C1O)NC(=O)CC=CCC=CCC=CCCCCCCCCCCCCCCCCCCCCCC (some centres undefined) [GlcCer(50:04)] |  |  |  | collision cross section (N2) ([M+H-2H2O]+): 314.25 Å²
CCCCCCCCCCCCCCCCCCCC(=O)OC[C@H](COP(=O)([O-])OCC[N+](C)(C)C)OC(=O)CCCCCCCCCCC [PC(32:00)] |  | 278.4 | 280.56 | collision cross section (N2) ([M+HCOO]-): 286.82 Å²
CCCCCCCCCCCCCCCCCCCCCCCC(=O)O[C@H](COC(=O)CCCCCCCCC)COP(=O)([O-])OCC[N+](C)(C)C [PC(34:00)] | 286.12 |  |  | 
CCCCC/C=C\C=C/CCCCCCCCC(=O)O[C@H](COC(=O)CCCCCCCCCCCCCCCCC)COP(=O)([O-])OCC[N+](C)(C)C [PC(36:02)] | 290.39 | 285.92 | 288.63 | collision cross section (N2) ([M+Cl]-): 295.12 Å²; collision cross section (N2) ([M+HCOO]-): 295.45 Å²; collision cross section (N2) ([M+K]+): 289.17 Å²
CC/C=C/C=C/C=C/C=C/CCCCCCCC(=O)O[C@H](COC(=O)CCCCCCCCCCCCCCCCC)COP(=O)([O-])OCC[N+](C)(C)C [PC(36:04)] |  |  | 285.05 | collision cross section (N2) ([M+Cl]-): 293.08 Å²; collision cross section (N2) ([M+HCOO]-): 292.86 Å²
CC/C=C\C/C=C\C/C=C\C/C=C\C/C=C\CCCCCC(=O)O[C@H](COC(=O)CCCCCCCCCCCCCCC)COP(=O)([O-])OCC[N+](C)(C)C [PC(38:05)] |  |  |  | collision cross section (N2) ([M+Cl]-): 297.1 Å²; collision cross section (N2) ([M+HCOO]-): 297.3 Å²
CCCCCCCC/C=C\CCCCCCCC(=O)O[C@H](COC(=O)CCCCCCCCCCCCCCCCC)COP(=O)(O)OCCN [PE(36:01)] | 283.74 | 277.02 | 282.21 | collision cross section (N2) ([M-H]-): 273.62 Å²
CCCCC/C=C\CCCCCCCC(=O)OC[C@H](COP(=O)(O)OCCN)OC(=O)CCCCCCCCCCCCCCCCCCCCC [PE(37:01)] | 286.74 |  | 284.35 | 
CCCCCCCC/C=C\CCCCCCCC(=O)OC[C@H](COP(=O)(O)OCCN)OC(=O)CCCCCCC/C=C\CCCCCCCCC [PE(37:02)] | 285.18 |  | 282.21 | 
CCCCCC/C=C\CCCCCCCC(=O)O[C@H](COCCCCCCCCCCCCCCCCCC)COP(=O)(O)OCCN [PE(o34:01)] | 276.22 |  | 275.79 | 
CCCCCCCC/C=C\CCCCCCCCCC(=O)O[C@H](COCCCCCCCCCCCCCCCC)COP(=O)(O)OCCN [PE(o36:01)] | 283.23 | 277.08 | 281.66 | 
CCCCC/C=C\C/C=C\CCCCCCCC(=O)O[C@H](COCCCCCCCCCCCCCCCCCC)COP(=O)(O)OCCN [PE(o36:02)] | 280.9 | 274.98 | 280.37 | 
CCCCCCCC/C=C\CCCCCCCC(=O)OC[C@H](COP(=O)(O)OC[C@H](N)C(=O)O)OC(=O)CCCCCCC/C=C\CCCCCCCC [PS(36:02)] | 285.97 | 280.92 |  | collision cross section (N2) ([M+K]+): 285.23 Å²; collision cross section (N2) ([M-H]-): 281.82 Å²
CCCCC/C=C\C/C=C\CCCCCCCCCCCC(=O)O[C@H](COC(=O)CCCCCCC/C=C\CCCCCC)COP(=O)(O)OC[C@H](N)C(=O)O [PS(38:03)] |  |  |  | collision cross section (N2) ([M-H]-): 286.53 Å²
CCCCCCCCCCCCC=CC[C@@H](O)[C@H](COP(=O)([O-])OCC[N+](C)(C)C)NC(=O)CC=CCCCCCCCCCCCCCC [SM(36:02)] |  | 284.15 | 280.32 | collision cross section (N2) ([M+HCOO]-): 289.73 Å²
CCCCCCCCCCCCCCCCCCCCCC(=O)N[C@@H](COP(=O)([O-])OCC[N+](C)(C)C)[C@H](O)CCCCCCCCCCCCCCC [SM(40:00)] |  | 299.61 |  | collision cross section (N2) ([M+Cl]-): 301.5 Å²; collision cross section (N2) ([M+HCOO]-): 303.38 Å²
CCCCCCCCCCCCC=CC[C@@H](O)[C@H](COP(=O)([O-])OCC[N+](C)(C)C)NC(=O)CCCCCCCCCCCCCCCCCCCCC [SM(40:01)] |  | 297.88 | 296 | collision cross section (N2) ([M+Cl]-): 300.79 Å²; collision cross section (N2) ([M+HCOO]-): 301.44 Å²

Continued, in another order:

collision cross section (N2) ([M+2Na-H]+) [Å²] | collision cross section (N2) ([M+H]+) [Å²] | collision cross section (N2) ([M+Na]+) [Å²] | Structure (SMILES) | further results
270 |  |  | CCCCC/C=C\C/C=C\CCCCCCCCCCCC(=O)O[C@H](COC(=O)CCCCCCCCCCCC)COP(=O)(O)O [PA(35:02)] | 
269.3 |  |  | CC/C=C\C/C=C\C/C=C\C/C=C\CCCCC(=O)O[C@H](COC(=O)CCCCCCC/C=C\CCCCCCCC)COP(=O)(O)O [PA(36:05)] | 
280.58 |  |  | CC/C=C\C/C=C\C/C=C\C/C=C\C/C=C\C/C=C\CCC(=O)O[C@H](COC(=O)CCCCCCCCCCCCCCCCC)COP(=O)(O)O [PA(40:06)] | 
 |  | 295.77 | CC/C=C\C/C=C\C/C=C\C/C=C\C/C=C\CCCCCC(=O)O[C@H](COC(=O)CCCCCCCCCCCCCCCCC)COP(=O)([O-])OCC[N+](C)(C)C [PC(40:05)] | 
288.8 |  |  | CCCCC/C=C\C/C=C\CCCCCCCCCCCC(=O)O[C@H](COC(=O)CCCCCCCCCCCCCCC)COP(=O)(O)OCCN [PE(38:02)] | 
284.96 |  |  | CC/C=C\C/C=C\C/C=C\C/C=C\CCCCC(=O)O[C@H](COC(=O)CCCCCCCCCCCCCCCCCCC)COP(=O)(O)OCCN [PE(38:04)] | collision cross section (N2) ([M+K]+): 284.45 Å²; collision cross section (N2) ([M-H]-): 276.04 Å²
289.53 |  | 289.38 | CCCCC/C=C\C/C=C\C/C=C\CCCCC(=O)OC[C@H](COP(=O)(O)OCCN)OC(=O)CCCCCCCCCCC/C=C\C/C=C\CCCCC [PE(40:05)] | collision cross section (N2) ([M-H]-): 280.89 Å²
280.85 |  |  | CC/C=C\C/C=C\C/C=C\C/C=C\C/C=C\C/C=C\CCC(=O)O[C@H](COCCCCCCCCCCCCCCCC)COP(=O)(O)OCCN [PE(o38:06)] | 
288.19 |  |  | CC/C=C\C/C=C\C/C=C\C/C=C\C/C=C\C/C=C\CCC(=O)O[C@H](COCCCCCCCCCCCCCCCCCC)COP(=O)(O)OCCN [PE(o40:06)] | 
295.38 | 289.63 |  | CCCCCCCCCC/C=C\CCCCCCCCCC(=O)O[C@H](COC(=O)CCCCCCCCCCCCCCC)COP(=O)(O)OC[C@H](N)C(=O)O [PS(38:01)] | 
291.95 |  |  | CCCCC/C=C\C/C=C\C/C=C\C/C=C\CCCCCC(=O)O[C@H](COC(=O)CCCCCCCCCCCCCCCC)COP(=O)(O)OC[C@H](N)C(=O)O [PS(39:04)] | 
301.13 | 295.93 |  | CCCCCCCC/C=C\CCCCCCCCCC(=O)OC[C@H](COP(=O)(O)OC[C@H](N)C(=O)O)OC(=O)CCCCCCCCCCCCCCCCCCC [PS(40:01)] | 
298.27 | 291.15 | 295.22 | CCCCC/C=C\C/C=C\C/C=C\CCCCC(=O)OC[C@H](COP(=O)(O)OC[C@H](N)C(=O)O)OC(=O)CCCCCCCCC/C=C\CCCCCCCCCC [PS(40:04)] | collision cross section (N2) ([M+K]+): 295.44 Å²; collision cross section (N2) ([M-H]-): 291.3 Å²
297.17 | 289.6 | 293.82 | CCCCC/C=C\C/C=C\C/C=C\C/C=C\CCCC(=O)O[C@H](COC(=O)CCCCCCCCC/C=C\CCCCCCCC)COP(=O)(O)OC[C@H](N)C(=O)O [PS(40:05)] | collision cross section (N2) ([M+K]+): 294.22 Å²; collision cross section (N2) ([M-H]-): 290.27 Å²
284.82 |  |  | CC/C=C\C/C=C\C/C=C\C/C=C\C/C=C\C/C=C\CCC(=O)O[C@H](COC(=O)CCCCCCC/C=C\C/C=C\C/C=C\CC)COP(=O)(O)OC[C@H](N)C(=O)O [PS(40:09)] | 
306.07 | 299.5 | 302 | CCCCC/C=C\C/C=C\CCCCCCCCCCCC(=O)O[C@H](COC(=O)CCCCCCCCCCCCCCCCCCC)COP(=O)(O)OC[C@H](N)C(=O)O [PS(42:02)] | 
 | 298.03 |  | CCCCC/C=C\C/C=C\CCCCCCCCCCCC(=O)O[C@H](COC(=O)CCCCCCCCC/C=C\CCCCCCCC)COP(=O)(O)OC[C@H](N)C(=O)O [PS(42:03)] | 
304.19 | 296.39 | 298.86 | CCCCC/C=C\C/C=C\C/C=C\CCCCCCC(=O)OC[C@H](COP(=O)(O)OC[C@H](N)C(=O)O)OC(=O)CCCCCCCCC/C=C\CCCCCCCCCC [PS(42:04)] | 
300.15 | 295.24 | 297.67 | CCCCC/C=C\C/C=C\C/C=C\CCCCCCC(=O)OC[C@H](COP(=O)(O)OC[C@H](N)C(=O)O)OC(=O)CCCCCCCCCCC/C=C\C/C=C\CCCCC [PS(42:05)] | 
301.25 |  |  | CC/C=C\C/C=C\C/C=C\C/C=C\C/C=C\C/C=C\CCC(=O)OC[C@H](COP(=O)(O)OC[C@H](N)C(=O)O)OC(=O)CCCCCCCCCCC/C=C\C/C=C\CCCCC [PS(44:08)] | 
282.4 |  |  | CCCC/C=C\C/C=C\CCCCCCCC(=O)O[C@H](COCCCCCCCCCCCCCCCCCC)COP(=O)(O)OC[C@H](N)C(=O)O [PS(o35:02)] | 

Reference: the C3SDB collision cross section collection
